Laboratory results reported in patent publication US12076329B2, “Compositions and methods for enhancing visual function” (The Regents of the University of California, priority 2020, dated 2024).
“Also recorded” adds a separate entry of the source.

Columns and labels:
[1] = test system: rd1 mice expressing SNAP-mGluR2 in RGCs; experiment: Line pattern recognition (learned aversive association, iPad displays), SNAP-mGluR2 in RGCs; format: in vivo, mouse; conditions: for line pattern recognition in moving displays (lines 1 or 6 cm apart): displays moving at 4 or 8 cm/s; for high-acuity line pattern recognition, 0.5 cm wide lines separated by 0.25 or 0.5 cm: in PBS intravitreal
Method: Modified active avoidance was assayed as previously described^19, using the Coulbourn shuttle box (H10-11M-SC), however, now iPad tablet screens were mounted onto the shuttle cage wall, each displaying one of two images that differed in orientation or distance between two lines but were otherwise of equal shape, size, and light intensity. The aversive image side was paired with a foot shock of 0.7 mA. Upon recall the light patterns were reversed to avoid a bias for location and time spent on each side was recorded. Adaptation was tested by dimming or brightening the display to different intensities.
As shown above, ^4×BGAG12,460:SNAP-mGluR2 in either RGCs or ON-BCs confers high sensitivity light perception. It was asked whether ^4×BGAG12,460:SNAP-mGluR2 would support patterned vision. The ability of treated and untreated rd1 mice to discriminate between two different line patterns in a learned negative association task was tested. The task is carried out in a 2-chamber arena, where the floor in each chamber is conductive and can apply an independent aversive mild foot shock. […] The mouse was trained for two days, during which a mild foot shock was given in one of the chambers. The line pattern associated with the foot shock was assigned randomly initially but then kept consistent for that animal throughout the 2 days of training. […] The chambers were cleaned thoroughly before and after each training or test session to remove olfactory clues. The room was kept dark to avoid room reference visual cues. And the aversive and non-aversive cues were switched between the end of the second day of training and the test day to avoid location bias.
To further assess the restored line pattern recognition, the lines were made thinner and the separation between the lines was reduced.
The kinetics of onset, decay and recovery of the restored light response are expected to affect the ability to recognize a visual pattern. […] Thus, the speed limit of ^4×BGAG12,460:SNAP-mGluR2 in RGCs is ≥8 cm/s, whereas that of medium wave cone opsin in RGCs is ≤4 cm/s.

SNAP-mGluR2 = molecular target: T1, SNAP-mGluR2 (Rattus norvegicus, UniProt P31421); experiment: Photoactivation of SNAP-mGluR2 read out as GIRK current, whole cell patch clamp in HEK293 cells; format: cell-based
T1 construct: expressed in transfected cells; host or cells: HEK293 / HEK 293T, with co-expressed GIRK channel
Method: Whole cell patch clamp recordings from HEK 293T cells were performed 24-48 hours after transfection as previously described (Farrants et al., 2018). Briefly, voltage clamp recordings at −60 mV were performed in a high potassium (120 mM) solution to enable large inward currents upon receptor activation.
Unless otherwise noted, cells were incubated with 1-10 μM of PORTL for 45-60 min at 37° C. in the appropriate extracellular recording solution. Labeling efficiency was determined as previously described (Levitz et al., 2017). Illumination was applied to the entire field of view using a CoolLED pE-4000 through a 40× objective. Light intensity in the sample plane was 1-2 mW/mm^2. pClamp software was used for both data acquisition and control of illumination. All drugs were purchased from Tocris and applied using a gravity-driven perfusion system.
FIG. 3A-3C. Monovalent BGAG12,460 elicits rat SNAP-mGluR2 and human SNAP-mGluR6 GIRK photo-current in HEK293 cells. FIG. 3A. Group II and III mGluRs, like mGluR2 and 6, respectively, couple to GIRK channels in neurons and this system reconstitutes in non-neuronal cell lines, so that SNAP-mGluR2 or 6 coupled to a BGAG photoswitch will be activated by light and induce hyperpolarizing GIRK current. FIG. 3B. Blue (460 nm) light photo-activates BGAG12,460:SNAP-mGluR2 and elicits an inward K+ current from co-expressed GIRK channel in a HEK293 cell voltage clamped at −60 mV with [K+]in=[K+]out=150 mM. FIG. 3C.
FIG. 4A-4D. Multibranched BGAG12,460 increases potency and sensitivity of SNAP-mGluR2 activation of GIRK channels in HEK293 cells. FIG. 4A. ^4×BGAG12,460 consists of a single BG end for 1:1 attachment to SNAP on each subunit of the mGluR and 4 branches of a 12-PEG linker, with each branch bearing a photoswitchable azobenzene-glutamate (AG). FIG. 4B. […] Dependence of SNAP-mGluR2 photo-activation efficiency, read out as GIRK current, with single, 2-branch and 4-branch BGAG12,460. […]

[2] = test system: rd1 mice expressing SNAP-mGluR2 in ON-BCs; experiment: 2-chamber light/dark light aversion test, SNAP-mGluR2 in ON-BCs; format: in vivo, mouse; conditions: in PBS intravitreal
Method: Mouse experiments were conducted under the express approval of the University of California Animal Care and Use Committee, wt mice (C57BL/6J) and rd1 mice (C3H) were purchased from the Jackson Laboratory and housed on a 12-h light/dark cycle with food and water ad libitum. cDNA encoding SNAP-mGluR2 was inserted in an established viral cassette under control of either the human synapsin promoter (hsyn-1) for expression in RGCs or a 4-copy concatemer of the mouse grm6 minimal promoter (4×grm6) for expression in ON-BCs and packaged in the AAV 2/2-4YF capsid. The vector, containing 10^10-10^12 viral genomes was delivered in a 2 µl volume to the vitreous of the rd1 mouse eye via microinjection. rAAV injections were at p30-p60 and in vivo and in vitro experiments at p90-p160. AAVs were produced as previously described.
The 2-chamber light-dark passive avoidance test was performed. White light (wavelength range) at ˜100 μW cm^2 or either blue light (460/45 nm) or green light (535/50 nm) at 0.5-25 μW cm^2 was mounted above the chamber with homogeneously distributed light.
Animal movements were tracked using IR sensors on the shuttle box. Time spent in the light and dark chambers was measured and analyzed using Graphic State and Graphic State RT (Coulbourn Instruments).
Whether ^4×BGAG12,460:SNAP-mGluR2 would also restore light perception in ON-BCs was tested. […]

T1 sequence (P31421 with tags, fused parts or gaps): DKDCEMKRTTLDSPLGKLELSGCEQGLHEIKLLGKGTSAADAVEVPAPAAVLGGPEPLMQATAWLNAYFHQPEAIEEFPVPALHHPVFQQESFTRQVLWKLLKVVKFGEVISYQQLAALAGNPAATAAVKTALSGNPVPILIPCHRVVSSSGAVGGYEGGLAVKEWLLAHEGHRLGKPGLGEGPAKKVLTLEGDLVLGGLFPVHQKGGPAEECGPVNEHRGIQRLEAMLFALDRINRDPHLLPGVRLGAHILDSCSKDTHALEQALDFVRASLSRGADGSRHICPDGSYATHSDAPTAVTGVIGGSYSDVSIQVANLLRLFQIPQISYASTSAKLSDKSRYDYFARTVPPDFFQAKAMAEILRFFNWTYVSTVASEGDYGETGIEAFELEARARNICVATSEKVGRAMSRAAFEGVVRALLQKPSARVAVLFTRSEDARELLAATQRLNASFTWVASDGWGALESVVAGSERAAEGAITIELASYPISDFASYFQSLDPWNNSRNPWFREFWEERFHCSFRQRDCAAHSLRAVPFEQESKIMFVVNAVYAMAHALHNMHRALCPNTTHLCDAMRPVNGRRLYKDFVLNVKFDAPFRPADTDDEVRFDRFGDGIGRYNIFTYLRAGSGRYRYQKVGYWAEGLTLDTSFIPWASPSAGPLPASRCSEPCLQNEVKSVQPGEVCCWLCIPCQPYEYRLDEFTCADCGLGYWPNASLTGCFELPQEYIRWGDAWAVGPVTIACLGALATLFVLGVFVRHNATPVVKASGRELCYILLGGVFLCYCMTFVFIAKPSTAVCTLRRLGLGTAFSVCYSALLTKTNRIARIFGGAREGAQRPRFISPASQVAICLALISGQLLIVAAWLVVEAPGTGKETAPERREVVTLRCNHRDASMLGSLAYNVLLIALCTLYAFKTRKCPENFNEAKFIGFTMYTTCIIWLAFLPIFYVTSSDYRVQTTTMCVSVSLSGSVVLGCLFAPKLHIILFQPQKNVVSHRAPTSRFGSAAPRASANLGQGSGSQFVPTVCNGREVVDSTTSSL

Nc1nc(OCc2ccc(CNC(=O)CCCC(=O)N[C@H](CCC(=O)N[C@H](CCC(=O)NCCOCCOCCOCCOCCOCCOCCOCCOCCOCCOCCOCCOCCC(=O)NCCNc3ccc(/N=N/c4ccc(NC(=O)CCC[C@@H](C[C@H](N)C(=O)O)C(=O)O)cc4)cc3)C(=O)NCCOCCOCCOCCOCCOCCOCCOCCOCCOCCOCCOCCOCCC(=O)NCCNc3ccc(/N=N/c4ccc(NC(=O)CCC[C@@H](C[C@H](N)C(=O)O)C(=O)O)cc4)cc3)C(=O)N[C@H](CCC(=O)NCCOCCOCCOCCOCCOCCOCCOCCOCCOCCOCCOCCOCCC(=O)NCCNc3ccc(/N=N/c4ccc(NC(=O)CCC[C@@H](C[C@H](N)C(=O)O)C(=O)O)cc4)cc3)C(=O)NCCOCCOCCOCCOCCOCCOCCOCCOCCOCCOCCOCCOCCC(=O)NCCNc3ccc(/N=N/c4ccc(NC(=O)CCC[C@@H](C[C@H](N)C(=O)O)C(=O)O)cc4)cc3)cc2)c2nc[nH]c2n1 [^4×BGAG12,460]
speed limit of line pattern recognition in moving displays [1]: ≥ 8 cm/s
line pattern recognition in moving displays (lines 1 or 6 cm apart) [1]: performed as well as wildtype animals when the line displays moved at either 4 or 8 cm/s
line pattern recognition in moving displays (lines 1 or 6 cm apart) ([1]; listed as 4×BGAG): supports line pattern recognition as well as wildtype vision when visual displays move at 8 cm/s
high-acuity line pattern recognition, 0.5 cm wide lines separated by 0.25 or 0.5 cm [1]: enabled the rd1 mice to perform the task and to do so as well as wildtype mice
high-acuity line pattern recognition, 0.5 cm wide lines separated by 0.25 or 0.5 cm ([1]; listed as 4×BGAG): supports line pattern recognition approaching wild-type acuity limit
line pattern recognition, parallel lines spaced 1 versus 6 cm ([1]; in PBS, trained and tested within a week after intravitreal injection): spent more time on the side of the non-aversive visual display
visible light photoactivation of SNAP-mGluR2 (SNAP-mGluR2; 460 nm light, GIRK current, HEK293 cells): near-complete photoactivation of mGluR2; also recorded: close to the maximum activation that is achieved with saturating glutamate
increase in sensitivity (shift of mid-point of the intensity-response curve) (SNAP-mGluR2; cultured HEK293 cells, versus BGAG12,460): ~5 fold
week post-injection by which dark preference disappeared [2]: ≤ 3 week
light aversion (time in dark chamber) ([2]; first week after injection): spent more time in the dark chamber
